Legend:
Type in all cases: cell-based, mouse
[1] = molecular target: T1, BaF3-CD74-NTRK1 (Homo sapiens, UniProt P04629); assay: Cell proliferation inhibition (CCK-8), BaF3-CD74-NTRK1 stable strain; conditions: BaF3-CD74-NTRK1, 72 hours
T1 construct: fused on or other part: P04233 (HLA class II histocompatibility antigen gamma chain)
Description: (§1) The brief steps of stable strain construction are as follows: construct a pCDNA3.1(+) plasmid vector carrying genes such as CD74-NTRK1, ETV6-NTRK2 and ETV6-NTRK3; the plasmid was electroporated into Ba/F3 cells using the Amaxa® Cell Line Nucleofector® Kit V; 48 hours after electroporated, G418 with a final concentration of 1000 μg/ml was added for screening for two weeks, and then IL3 was removed, and continued screening to obtain polyclonal stable strains; then single clones were selected by a limiting dilution method. The stable strains were then identified using positive drugs, WB and gene sequencing; and the monoclonal clones that were identified as completely correct may be used for the study of cell proliferation inhibitory activity of inhibitors.
(§2) Cell proliferation inhibition activity study: the cells in the logarithmic growth phase were seeded into 96-well plates at 8000-12000 cells/well, and inhibitors at different concentrations (0-10 μM) were added the next day, and incubation was continued for 72 hours; then 10 μL of CCK-8 reagent was added to each well, and the incubation was continued for 1-3 hours; and then use a super microplate reader to measure their absorbance values at 450 nm and 650 nm. The half-inhibition concentration (IC50) was calculated using GraphPad Prism 8.0.0.

[2] = molecular target: T2, BaF3-ETV6-NTRK2 (Homo sapiens, UniProt Q16620); assay: Cell proliferation inhibition (CCK-8), BaF3-ETV6-NTRK2 stable strain; conditions: BaF3-ETV6-NTRK2, 72 hours
T2 construct: fused on or other part: P41212 (Transcription factor ETV6)
T2 sequence (Q16620 538-822 limits assumed): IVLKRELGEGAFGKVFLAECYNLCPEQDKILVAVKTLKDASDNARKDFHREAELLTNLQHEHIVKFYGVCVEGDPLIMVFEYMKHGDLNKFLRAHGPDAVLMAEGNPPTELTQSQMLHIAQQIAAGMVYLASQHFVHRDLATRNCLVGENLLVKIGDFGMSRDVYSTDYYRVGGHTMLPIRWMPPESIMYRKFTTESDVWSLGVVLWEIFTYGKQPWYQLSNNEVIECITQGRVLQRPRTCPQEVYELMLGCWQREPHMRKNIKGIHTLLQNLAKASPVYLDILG
Description: as §1, §2

[3] = molecular target: T3, BaF3-ETV6-NTRK3 (Homo sapiens, UniProt Q16288); assay: Cell proliferation inhibition (CCK-8), BaF3-ETV6-NTRK3 stable strain; conditions: BaF3-ETV6-NTRK3, 72 hours
T3 construct: fused on or other part: P41212 (Transcription factor ETV6)
T3 sequence (Q16288 whole entry, the tested form may be a part): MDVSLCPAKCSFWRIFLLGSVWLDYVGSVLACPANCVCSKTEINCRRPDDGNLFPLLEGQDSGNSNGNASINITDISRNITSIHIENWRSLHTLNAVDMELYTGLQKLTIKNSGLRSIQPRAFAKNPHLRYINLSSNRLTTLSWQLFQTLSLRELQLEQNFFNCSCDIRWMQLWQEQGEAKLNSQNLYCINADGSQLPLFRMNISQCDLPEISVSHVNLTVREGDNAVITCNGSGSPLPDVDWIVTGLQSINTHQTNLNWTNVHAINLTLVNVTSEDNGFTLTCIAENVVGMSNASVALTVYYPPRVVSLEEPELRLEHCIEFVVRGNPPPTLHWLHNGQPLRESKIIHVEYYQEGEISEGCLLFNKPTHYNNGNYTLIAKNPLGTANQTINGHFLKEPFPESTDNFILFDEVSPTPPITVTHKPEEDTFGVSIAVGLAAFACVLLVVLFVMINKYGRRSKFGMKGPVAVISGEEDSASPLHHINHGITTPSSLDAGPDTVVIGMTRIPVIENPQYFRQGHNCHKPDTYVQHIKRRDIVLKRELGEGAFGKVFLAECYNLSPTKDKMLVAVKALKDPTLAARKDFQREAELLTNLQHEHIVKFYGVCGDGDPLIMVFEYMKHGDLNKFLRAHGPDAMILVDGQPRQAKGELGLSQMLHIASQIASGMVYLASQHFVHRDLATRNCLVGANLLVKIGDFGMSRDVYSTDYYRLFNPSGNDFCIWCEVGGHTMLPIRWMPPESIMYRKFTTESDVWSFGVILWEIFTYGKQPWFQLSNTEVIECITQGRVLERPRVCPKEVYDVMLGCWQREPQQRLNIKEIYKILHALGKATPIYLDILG
Description: as §1, §2

T1 sequence (P04629 510-796 limits assumed): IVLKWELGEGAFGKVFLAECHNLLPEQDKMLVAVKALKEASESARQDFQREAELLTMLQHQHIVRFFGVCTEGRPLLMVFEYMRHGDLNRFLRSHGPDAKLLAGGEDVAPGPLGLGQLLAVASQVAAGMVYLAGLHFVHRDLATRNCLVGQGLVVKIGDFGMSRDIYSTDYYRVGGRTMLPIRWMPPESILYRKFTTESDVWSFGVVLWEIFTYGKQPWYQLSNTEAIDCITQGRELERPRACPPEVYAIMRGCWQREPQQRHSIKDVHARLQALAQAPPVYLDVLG

IC50 [1] [nM] | IC50 [2] [nM] | IC50 [3] [nM] | Compound
21.2 | 31.7 | 22.6 | CN(C)C(=O)/C=C/c1n[nH]c2ccc(NCc3cc(F)cc(F)c3)cc12 [DYX-220, (E)-3-(5-((3,5-difluorobenzyl)amino)-1H-indazol-3-yl)-N,N-dimethylacrylamide]
37.7 | 24.3 | 35.6 | NC(=O)/C=C/c1n[nH]c2ccc(NCc3cc(F)cc(F)c3)cc12 [DYX-223, (E)-3-(5-((3,5-difluorobenzyl)amino)-1H-indazol-3-yl)acrylamide]
48.7 | 48.1 | 34.4 | CN1CCN(C(=O)/C=C/c2n[nH]c3ccc(NCc4cc(F)cc(F)c4)cc23)CC1 [DYX-226, (E)-3-(5-((3,5-difluorobenzyl)amino)-1H-indazol-3-yl)-1-(4-methylpiperazin-1-yl)prop-2-en-1-one]
37.5 | 56 | 33.2 | O=C(/C=C/c1n[nH]c2ccc(NCc3cc(F)cc(F)c3)cc12)N1CC[C@@H](O)C1 [DYX-227, (R,E)-3-(5-((3,5-difluorobenzyl)amino)-1H-indazol-3-yl)-1-(3-hydroxylpyrrolidin-1-yl)prop-2-en-1-one]
11.9 | 20.5 | 11.6 | O=C(/C=C/c1n[nH]c2ccc(NCc3cc(F)cc(F)c3)cc12)N1CC[C@H](O)C1 [DYX-228, (S,E)-3-(5-((3,5-difluorobenzyl)amino)-1H-indazol-3-yl)-1-(3-hydroxylpyrrolidin-1-yl)prop-2-en-1-one]
682 | 303 | 359 | CC(C)(C)NC(=O)/C=C/c1n[nH]c2ccc(NCc3cc(F)cc(F)c3)cc12 [DYX-230, (E)-N-tert-butyl-3-(5-((3,5-difluorobenzyl)amino)-1H-indazol-3-yl)acrylamide]
619 | 780 | 547 | CC(C)NC(=O)/C=C/c1n[nH]c2ccc(NCc3cc(F)cc(F)c3)cc12 [DYX-231, (E)-3-(5-((3,5-difluorobenzyl)amino)-1H-indazol-3-yl)-N-isopropylacrylamide]
20 | 32.6 | 34.2 | CNC(=O)/C=C/c1n[nH]c2ccc(NCc3cc(F)cc(F)c3)cc12 [DYX-235, (E)-3-(5-((3,5-difluorobenzyl)amino)-1H-indazol-3-yl)-N-methylacrylamide]
112 | 116 | 196 | CCNC(=O)/C=C/c1n[nH]c2ccc(NCc3cc(F)cc(F)c3)cc12 [DYX-236, (E)-3-(5-((3,5-difluorobenzyl)amino)-1H-indazol-3-yl)-N-ethylacrylamide]

Further lines, the compound ahead of its results:

Compound | IC50 [1] [nM] | IC50 [2] [nM] | IC50 [3] [nM]
O=C(/C=C/c1n[nH]c2ccc(NCc3cc(F)cc(F)c3)cc12)N1CCOCC1 [DYX-222, (E)-3-(5-((3,5-difluorobenzyl)amino)-1H-indazol-3-yl)-1-morpholinoprop-2-en-1-one] | 37.3 | 54.7 | 41.5
C(=C\c1n[nH]c2ccc(NCc3ccccc3)cc12)/c1ccccn1 [DYX-314, (E)-N-benzyl-3-(2-(pyridin-2-yl)vinyl)-1H-indazol-5-amine] | 154 | 165 | 149
C[C@@H](Nc1ccc2[nH]nc(/C=C/c3ccccn3)c2c1)c1cccc(F)c1 [DYX-320, (R,E)-N-(1-(3-fluorophenyl)ethyl)-3-(2-(pyridin-2-yl)vinyl)-1H-indazol-5-amine] | 37.6 | 32.4 | 10.4
C[C@@H](Nc1ccc2[nH]nc(/C=C/c3cnn(CCO)c3)c2c1)c1cc(F)cc(F)c1 [DYX-327, (R,E)-2-(4-(2-(5-((1-(3,5-difluorophenyl)ethyl)amino)-1H-indazol-3-yl)vinyl)-1H-pyrazol-1-yl)-1-ethanol] | 1.4 | 17.6 | 5.4
C[C@@H](Nc1ccc2[nH]nc(/C=C/c3ccccn3)c2n1)c1cc(F)cc(F)c1 [DYX-332, (R,E)-N-(1-(3,5-difluorophenyl)ethyl)-3-(2-(pyridin-2-yl)vinyl)-1H-pyrazolo[4,3-b]pyridin-5-amine] | 9.9 | 146 | 46.5
C[C@@H](Nc1ccc2[nH]nc(/C=C/c3cnn(CCO)c3)c2c1)c1cccc(F)c1 [DYX-335, (R,E)-2-(4-(2-(5-((1-(3-fluorophenyl)ethyl)amino)-1H-indazol-3-yl)vinyl)-1H-pyrazol-1-yl)-1-ethanol] | 0.6 | 10.7 | 3.3
C[C@@H](Nc1cc2c(/C=C/c3ccccn3)n[nH]c2cn1)c1cc(F)cc(F)c1 [DYX-340, (R,E)-N-(1-(3,5-difluorophenyl)ethyl)-3-(2-(pyridin-2-yl)vinyl)-1H-pyrazolo[3,4-c]pyridin-5-amine] | 18.7 | 160 | 68

From patent publication US20220281821A1, “INDAZOLE COMPOUNDS AND THEIR PHARMACEUTICAL COMPOSITIONS” (Jinan University, priority 2019, published 2022)
